Measurements published in paper PMC8936486 (PLoS Biology, 2022).

Legend:
SaFtsZf [1] = target: T1, SaFtsZf (Staphylococcus aureus, UniProt P0A029); assay: light scattering of polymer assembly; type: biochemical; conditions: 10 mM MgCl2, pH 6.5, 25 °C
T1 construct: gene ftsZ
T1 sequence (P0A029 1-390): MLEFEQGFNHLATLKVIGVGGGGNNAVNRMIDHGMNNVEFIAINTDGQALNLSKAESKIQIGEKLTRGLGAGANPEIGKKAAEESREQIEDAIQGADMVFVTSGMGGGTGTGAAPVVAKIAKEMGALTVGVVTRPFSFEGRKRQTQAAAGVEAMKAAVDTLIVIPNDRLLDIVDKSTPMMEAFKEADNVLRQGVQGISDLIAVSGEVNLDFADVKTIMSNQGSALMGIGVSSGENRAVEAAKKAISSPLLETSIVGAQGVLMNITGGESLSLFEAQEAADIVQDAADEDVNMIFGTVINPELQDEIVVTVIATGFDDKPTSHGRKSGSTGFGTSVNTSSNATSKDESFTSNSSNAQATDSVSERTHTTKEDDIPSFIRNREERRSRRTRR

MjFtsZ = target: T2, MjFtsZ (Methanocaldococcus jannaschii, UniProt Q57816); assay: light scattering of polymer assembly; type: biochemical; conditions: 5 mM BeF3- with GTP, 55 °C; stabilizes polymers, repolymerization after disassembly
T2 construct: gene ftsZ1; full-length, nucleotide-devoid (apo)

SaFtsZf [2] = target: T1, SaFtsZf; assay: electron microscopy of polymers; type: biochemical; conditions: MES assembly buffer, 25 °C
[3] = target: the molecule itself; assay: right angle light scattering; self-assembly of full-length FtsZ with 1 mM GTP and MgCl2 in MES assembly buffer; SaFtsZf 49 uM and EcFtsZ 25 uM at 25 C, apo-MjFtsZ 15 uM at 55 C; SaFtsZf polymers also seen by electron microscopy

What does the source list for `[F][Be-]([F])[F]` [BeF3^−]?
light scattering of polymer assembly (SaFtsZf [1]; 1-5 mM BeF3- with 1 mM GTP, stabilizes polymers): Assembly of full-length SaFtsZ is stabilized by BeF3^−; light scattering of polymer assembly (MjFtsZ): Repolymerization with BeF3^− after disassembly was observed for MjFtsZ

`Nc1nc2c(ncn2[C@@H]2O[C@H](COP(=O)(O)CP(=O)(O)OP(=O)(O)O)[C@@H](O)[C@H]2O)c(=O)[nH]1` [GMPCPP, guanosine-5′-[(α,β)-methyleno]triphosphate] was tested. Which “electron microscopy of polymers” value (SaFtsZf [2]) did it give?
The value was “Polymers formed with GMPCPP”.

`Nc1nc2c(ncn2[C@@H]2O[C@H](COP(=O)(O)OP(=O)(O)OP(=O)(O)O)[C@@H](O)[C@H]2O)c(=O)[nH]1` [GTP] was tested. Which “light scattering of polymer assembly” value (SaFtsZf [1]; 1 mM GTP) did it give?
The value was “The sample with GTP depolymerized upon nucleotide consumption (blue line)”.

B1: nucleotide-devoid, full-length FtsZ from M. jannaschii (natural protein, Methanocaldococcus jannaschii, UniProt Q57816 1-364, looked up)
chain: MKFLKNVLEEGSKLEEFNELELSPEDKELLEYLQQTKAKITVVGCGGAGNNTITRLKMEGIEGAKTVAINTDAQQLIRTKADKKILIGKKLTRGLGAGGNPKIGEEAAKESAEEIKAAIQDSDMVFITCGLGGGTGTGSAPVVAEISKKIGALTVAVVTLPFVMEGKVRMKNAMEGLERLKQHTDTLVVIPNEKLFEIVPNMPLKLAFKVADEVLINAVKGLVELITKDGLINVDFADVKAVMNNGGLAMIGIGESDSEKRAKEAVSMALNSPLLDVDIDGATGALIHVMGPEDLTLEEAREVVATVSSRLDPNATIIWGATIDENLENTVRVLLVITGVQSRIEFTDTGLKRKKLELTGIPKI
notes: full-length FtsZ from Methanocaldococcus jannaschii, nucleotide-devoid; also called apo-MjFtsZ; MjFtsZ; source: prepared as reported [55]
Does B1 bind [3]?
Result: binds

B2: full-length FtsZ from S. aureus (natural protein, Staphylococcus aureus Mu50/ATCC 700699, UniProt P0A029 1-390, looked up)
chain: T1 sequence (P0A029 1-390)
notes: full-length FtsZ from methicillin-resistant S. aureus Mu50/ATCC 700699; also called SaFtsZf; full-length SaFtsZ
Does B2 bind [3]?
Result: binds

B3: full-length FtsZ from E. coli (natural protein, Escherichia coli, UniProt P0A9A6 1-383, looked up)
chain: MFEPMELTNDAVIKVIGVGGGGGNAVEHMVRERIEGVEFFAVNTDAQALRKTAVGQTIQIGSGITKGLGAGANPEVGRNAADEDRDALRAALEGADMVFIAAGMGGGTGTGAAPVVAEVAKDLGILTVAVVTKPFNFEGKKRMAFAEQGITELSKHVDSLITIPNDKLLKVLGRGISLLDAFGAANDVLKGAVQGIAELITRPGLMNVDFADVRTVMSEMGYAMMGSGVASGEDRAEEAAEMAISSPLLEDIDLSGARGVLVNITAGFDLRLDEFETVGNTIRAFASDNATVVIGTSLDPDMNDELRVTVVATGIGMDKRPEITLVTNKQVQQPVMDRYQQHGMAPLTQEQKPVAKVVNDNAPQTAKEPDYLDIPAFLRKQAD
notes: full-length FtsZ from Escherichia coli, wild-type protein; also called EcFtsZ; Escherichia coli FtsZ; source: purified as described [54]
Does B3 bind [3]?
Result: binds
